Measured values reported in ChEMBL document CHEMBL4004877, “Synthesis and biological evaluation of chalcone, dihydrochalcone, and 1,3-diarylpropane analogs as anti-inflammatory agents” (Bioorg Med Chem Lett, 2017).
Converted amounts (≈) assume the structure as drawn.

Assays:
RAW264.7 [1] = assay: Antiinflammatory activity in mouse RAW264.7 cells assessed as inhibition of LPS induced iNOS-dependent nitric oxide production at 1.25 ug/ml after 24 hrs by Griess assay relative to control; assay type: functional; conditions: RAW264.7, 24 h
RAW264.7 [2] = assay: Antiinflammatory activity in mouse RAW264.7 cells assessed as inhibition of LPS induced iNOS-dependent nitric oxide production at 2.5 ug/ml after 24 hrs by Griess assay relative to control; assay type: functional; conditions: RAW264.7, 24 h
RAW264.7 [3] = assay: Antiinflammatory activity in mouse RAW264.7 cells assessed as inhibition of LPS induced iNOS-dependent nitric oxide production at 5 ug/ml after 24 hrs by Griess assay relative to control; assay type: functional; conditions: RAW264.7, 24 h
RAW264.7 [4] = assay: Antiinflammatory activity in mouse RAW264.7 cells assessed as inhibition of LPS induced iNOS-dependent nitric oxide production at 10 ug/ml after 24 hrs by Griess assay relative to control; assay type: functional; conditions: RAW264.7, 24 h
RAW264.7 [5] = assay: Antiinflammatory activity in mouse RAW264.7 cells assessed as inhibition of LPS induced iNOS-dependent nitric oxide production after 24 hrs by Griess assay; assay type: functional, cell-based; conditions: RAW264.7, 24 h
[6] = Cytotoxicity against LPS-stimulated mouse RAW264.7 cells assessed as cell viability at 1.25 ug/ml after 24 hrs by MTT assay relative to control; assay type: cell-based; conditions: LPS-stimulated RAW264.7 cells, read-out: Activity
[7] = Cytotoxicity against LPS-stimulated mouse RAW264.7 cells assessed as cell viability at 2.5 ug/ml after 24 hrs by MTT assay relative to control; assay type: cell-based; conditions: LPS-stimulated RAW264.7 cells, read-out: Activity
[8] = Cytotoxicity against LPS-stimulated mouse RAW264.7 cells assessed as cell viability at 5 ug/ml after 24 hrs by MTT assay relative to control; assay type: cell-based; conditions: LPS-stimulated RAW264.7 cells, read-out: Activity
[9] = Cytotoxicity against LPS-stimulated mouse RAW264.7 cells assessed as cell viability at 10 ug/ml after 24 hrs by MTT assay relative to control; assay type: cell-based; conditions: LPS-stimulated RAW264.7 cells, read-out: Activity

Work on `COc1cc(CCCc2cccc(O)c2)ccc1O` yielded an inhibition at 1.25 µg/mL (RAW264.7 [1]) of 10.9%, an inhibition at 2.5 µg/mL (RAW264.7 [2]) of 15.9% and an inhibition at 5 µg/mL (RAW264.7 [3]) of 18.1%. The inhibition at 10 µg/mL (RAW264.7 [4]) was 80.4%, the IC50 (RAW264.7 [5]) was 7.13 µg/mL (≈ 27.6 µM) and the viability at 24 h, 1.25 ug/ml [6] was 100%. The viability at 24 h, 2.5 ug/ml [7] was 99.5%, the viability at 24 h, 5 ug/ml [8] was 97.7% and the viability at 24 h, 10 ug/ml [9] was 76.1%.

`COc1ccc(C(=O)/C=C/c2ccc(OC)c(OC)c2OC)c(O)c1` gave an inhibition at 1.25 µg/mL (RAW264.7 [1]) of 9.1%, an inhibition at 2.5 µg/mL (RAW264.7 [2]) of 9.7% and an inhibition at 5 µg/mL (RAW264.7 [3]) of 4.1%. The inhibition at 10 µg/mL (RAW264.7 [4]) was 0.1%, the IC50 (RAW264.7 [5]) was over 10 µg/mL and the viability at 24 h, 1.25 ug/ml [6] was 98.5%. The viability at 24 h, 2.5 ug/ml [7] was 96.6%, the viability at 24 h, 5 ug/ml [8] was 72.5% and the viability at 24 h, 10 ug/ml [9] was 75.3%.

For `COc1ccc(OC)c(CCCc2cccc(O)c2)c1`, the inhibition at 1.25 µg/mL (RAW264.7 [1]) was 1.5%, the inhibition at 2.5 µg/mL (RAW264.7 [2]) was 19.9% and the inhibition at 5 µg/mL (RAW264.7 [3]) was 36.8%. For the same molecule, the inhibition at 10 µg/mL (RAW264.7 [4]) was 38.9%, the IC50 (RAW264.7 [5]) was over 10 µg/mL and the viability at 24 h, 1.25 ug/ml [6] was 101%. For the same molecule, the viability at 24 h, 2.5 ug/ml [7] was 98.2%, the viability at 24 h, 5 ug/ml [8] was 93.5% and the viability at 24 h, 10 ug/ml [9] was 92.2%.

`COc1ccc(CCCc2ccc(OC)c(OC)c2)cc1` showed an inhibition at 1.25 µg/mL (RAW264.7 [1]) of 12.9%, an inhibition at 2.5 µg/mL (RAW264.7 [2]) of 15.1% and an inhibition at 5 µg/mL (RAW264.7 [3]) of 28.6%. It also gave an inhibition at 10 µg/mL (RAW264.7 [4]) of 55.4%, an IC50 (RAW264.7 [5]) of 8.69 µg/mL (≈ 30.3 µM) and a viability at 24 h, 1.25 ug/ml [6] of 100%. The viability at 24 h, 2.5 ug/ml [7] was 100%, the viability at 24 h, 5 ug/ml [8] was 96.9% and the viability at 24 h, 10 ug/ml [9] was 95.1%.

For `COc1cc(/C=C/C(=O)c2cccc(O)c2)ccc1O`, the inhibition at 1.25 µg/mL (RAW264.7 [1]) was 3%, the inhibition at 2.5 µg/mL (RAW264.7 [2]) was 3.2% and the inhibition at 5 µg/mL (RAW264.7 [3]) was 3.2%. For the same molecule, the inhibition at 10 µg/mL (RAW264.7 [4]) was 12.2%, the IC50 (RAW264.7 [5]) was over 10 µg/mL and the viability at 24 h, 1.25 ug/ml [6] was 96.9%. For the same molecule, the viability at 24 h, 2.5 ug/ml [7] was 94%, the viability at 24 h, 5 ug/ml [8] was 63.8% and the viability at 24 h, 10 ug/ml [9] was 62.6%.

For `COc1ccc(C(=O)/C=C/c2cccc(OC)c2OC)c(O)c1`, the inhibition at 1.25 µg/mL (RAW264.7 [1]) was 1.3%, the inhibition at 2.5 µg/mL (RAW264.7 [2]) was 54.7% and the inhibition at 5 µg/mL (RAW264.7 [3]) was 55.3%. It also gave an inhibition at 10 µg/mL (RAW264.7 [4]) of 59.7%, an IC50 (RAW264.7 [5]) of 2.35 µg/mL (≈ 7.48 µM) and a viability at 24 h, 1.25 ug/ml [6] of 94.2%. The viability at 24 h, 2.5 ug/ml [7] was 72.9%, the viability at 24 h, 5 ug/ml [8] was 69.7% and the viability at 24 h, 10 ug/ml [9] was 60.3%.

`COc1ccc(/C=C/C(=O)c2ccc(OC)c(OC)c2)cc1OC` showed an inhibition at 1.25 µg/mL (RAW264.7 [1]) of 0.2%, an inhibition at 2.5 µg/mL (RAW264.7 [2]) of 1.7% and an inhibition at 5 µg/mL (RAW264.7 [3]) of 2%. For the same molecule, the inhibition at 10 µg/mL (RAW264.7 [4]) was 3.3%, the IC50 (RAW264.7 [5]) was over 10 µg/mL and the viability at 24 h, 1.25 ug/ml [6] was 94%. It also gave a viability at 24 h, 2.5 ug/ml [7] of 91.9%, a viability at 24 h, 5 ug/ml [8] of 81.3% and a viability at 24 h, 10 ug/ml [9] of 60.4%.

Work on `COc1cc(CCC(=O)c2cccc(O)c2)ccc1O` yielded an inhibition at 1.25 µg/mL (RAW264.7 [1]) of 5.6%, an inhibition at 2.5 µg/mL (RAW264.7 [2]) of 19.8% and an inhibition at 5 µg/mL (RAW264.7 [3]) of 23.2%. The inhibition at 10 µg/mL (RAW264.7 [4]) was 50.9%, the IC50 (RAW264.7 [5]) was 9.78 µg/mL (≈ 35.9 µM) and the viability at 24 h, 1.25 ug/ml [6] was 100%. It also gave a viability at 24 h, 2.5 ug/ml [7] of 98.9%, a viability at 24 h, 5 ug/ml [8] of 96.1% and a viability at 24 h, 10 ug/ml [9] of 91%.

In the case of `COc1cc(C(=O)CCc2ccc3c(c2)OCO3)ccc1O`, the inhibition at 1.25 µg/mL (RAW264.7 [1]) is reported as 4.2%, the inhibition at 2.5 µg/mL (RAW264.7 [2]) is reported as 5.5% and the inhibition at 5 µg/mL (RAW264.7 [3]) is reported as 32.2%. The inhibition at 10 µg/mL (RAW264.7 [4]) was 51.6%, the IC50 (RAW264.7 [5]) was 9.44 µg/mL (≈ 31.4 µM) and the viability at 24 h, 1.25 ug/ml [6] was 95.3%. It also gave a viability at 24 h, 2.5 ug/ml [7] of 94.5%, a viability at 24 h, 5 ug/ml [8] of 92% and a viability at 24 h, 10 ug/ml [9] of 89%.

With `COc1ccc(CCCc2ccc(OC)cc2O)cc1` the inhibition at 1.25 µg/mL (RAW264.7 [1]) was 25.7%, the inhibition at 2.5 µg/mL (RAW264.7 [2]) was 30.5% and the inhibition at 5 µg/mL (RAW264.7 [3]) was 37.8%. For the same molecule, the inhibition at 10 µg/mL (RAW264.7 [4]) was 72.5%, the IC50 (RAW264.7 [5]) was 6.37 µg/mL (≈ 23.4 µM) and the viability at 24 h, 1.25 ug/ml [6] was 98.9%. The viability at 24 h, 2.5 ug/ml [7] was 96.8%, the viability at 24 h, 5 ug/ml [8] was 94.6% and the viability at 24 h, 10 ug/ml [9] was 73.8%.

Molecule `COc1ccc(/C=C/C(=O)c2cccc(O)c2)c(OC)c1` has an inhibition at 1.25 µg/mL (RAW264.7 [1]) of 1.6%, an inhibition at 2.5 µg/mL (RAW264.7 [2]) of 2.3% and an inhibition at 5 µg/mL (RAW264.7 [3]) of 9%. For the same molecule, the inhibition at 10 µg/mL (RAW264.7 [4]) was 53.9%, the IC50 (RAW264.7 [5]) was 9.42 µg/mL (≈ 33.1 µM) and the viability at 24 h, 1.25 ug/ml [6] was 97.7%. For the same molecule, the viability at 24 h, 2.5 ug/ml [7] was 74%, the viability at 24 h, 5 ug/ml [8] was 63% and the viability at 24 h, 10 ug/ml [9] was 61.6%.

Work on `COc1ccc(/C=C/C(=O)c2cccc(O)c2)cc1` yielded an inhibition at 1.25 µg/mL (RAW264.7 [1]) of 9.4%, an inhibition at 2.5 µg/mL (RAW264.7 [2]) of 2.1% and a viability at 24 h, 1.25 ug/ml [6] of 99%. The viability at 24 h, 2.5 ug/ml [7] was 99.1%, the viability at 24 h, 5 ug/ml [8] was 63.3% and the viability at 24 h, 10 ug/ml [9] was 41.2%.
